Data set [1] has as its system wildtype MEFs. The experiment in a line: Cellular UQ10 levels (quinone quantification by HPLC). The format is cell-based, mouse. As for the experimental part: (§1) Quantification of quinones. Quinone content was detected and quantified by HPLC as previously described. […] After centrifugation for 5 min at 8,000×g, the hexane layer was collected and evaporated in a vacuum centrifuge. The quinone residue was then dissolved in ethanol and stored at −20° C. until HPLC analysis. The HPLC analysis was performed on a reverse phase C18 column (25.0×0.46 cm, 5 μm, Highchrom) using UV detection at 275 nm (Beckman System Gold). The mobile phase was methanol/ethanol (70:30 v/v) and isocratic elution was used at a flow rate of 1.8 ml/min.

The test system of data set [2] is Pdss2/Mclk1 DKO MEFs. Described as above. The format is cell-based, mouse. As for the experimental part: as §1
The subject of data set [3] is mouse embryonic fibroblasts (MEFs). Description: Effect of PTX/McC1 micelles on cell growth and survival (resazurin reduction assay). The format is cell-based. Conditions: 2 to 6 days exposure (FIG. 26B). As for the experimental part: To evaluate the antiproliferative activity of PTX/McC1 micelles, we seeded exponentially growing mouse embryonic fibroblasts (MEFs) into 48-well plates, exposed them to PTX/McC1 micelles for 2 to 6 days, and determined the treatment effect on cell growth and survival by comparing the numbers of variable cells before and after the treatment.
Cells were allowed to attach overnight and then the PTX/McC1 solution was added into the culture media to obtain the desired concentrations. After 2 days' treatment, the standard resazurin reduction assay was used to evaluate cell growth and survival.
(In general: Resazurin is reduced to fluorescent resorufin, in cell work by metabolically active cells.)

For data set [4], the system named is mitochondria of wild-type MEFs. The experiment in a line: UQ levels in mitochondrial extracts. The data set is classed as cell-based, mouse. Conditions: in combination with UQ10, vs UQ10 alone.
Excerpt: (§2) FIGS. 7A to 7D present exemplary data showing that McC1 is capable of increasing the uptake of exogenous UQ into cells and mitochondria. (A) Bar chart showing change of UQ10 levels (as measured in ng/μg of protein) in Pdss2/Mclk1 DKO MEFs after treatment with UQ10, McC1 alone, or UQ10 and McC1 in combination. **p<0.01, ***p<0.001 (one-way ANOVA). (B) Bar charts presenting exemplary data showing changes of UQ levels in wildtype MEFs after treatment with UQ10, McC1 alone, or both in combination. Results are shown as cellular UQ10 levels (as provided in ng/μg of protein, left panel) or UQ9 levels (as provided in ng/μg of protein, right panel) in untreated cells, after treatment with 12.5 μM of McC1, after treatment with 2.5 μM of UQ10, or after co-treatment UQ10 and McC1. Results are mean±SEM (n=3). ****p<0.0001 (one-way ANOVA). (C) Bar chart presenting exemplary data showing changes of UQ10 and UQ9 levels in mitochondrial extracts from wildtype MEFs after treatment with UQ10 alone, or in combination with McC1. Results are shown as UQ9 and UQ10 levels in ng/μg of protein. Results are mean±SEM (n=3). ****p<0.0001 (student's t-test). (D) Bar chart presenting exemplary data showing changes of UQ10 level in mitochondrial extracts from Pdss2/Mclk1 DKO MEFs after treatment with UQ10 alone, or in combination with McC1. Results are shown as UQ10 levels (as provided in ng/μg of protein) in untreated DKO cells, after treatment with 2.5 μM of UQ10, or after co-treatment 2.5 μM of UQ10 and 12.5 μM of McC1. ND: Not Detectable. Results are mean±SEM (n=3). ****p<0.0001 (one-way ANOVA).
as §1

Data set [5] concerns mitochondria of Pdss2/Mclk1 DKO MEFs. The experiment in a line: UQ levels in mitochondrial extracts. The format is cell-based, mouse. Conditions: in combination with UQ10, vs UQ10 alone.
Excerpt: as §2, §1

The nature of data set [6]: Drop collapse assay (surfactant activity). The data set is classed as physicochemical. As for the experimental part: Drop collapse assay is a simple detection method of surface active agents. It relies on the capacity of surfactants to destabilize the liquid droplets on an oily surface. The drop-collapsing ability of McC1 along with other known potent surfactants was characterized. For each, 40 ul of compound solution in water was pipetted onto a hydrophobic Parafilm surface and the diameter of the drops was measured 1 min later using a ruler.

Data set [7] has as its system Pdss2/Mclk1 DKO cells. The experiment in a line: Viability in glucose-free galactose-containing medium (resazurin reduction assay). The format is cell-based, mouse. As for the experimental part:
Tissue culture and viability assays. […] Cell viability was determined by resazurin (Sigma Cat No R7017) reduction assay or crystal violet staining following standard procedures.
(§3) The resazurin cell viability assay. Briefly, resazurin was added directly to plates at 1/10 the volume of glucose culture medium. Viable cells with active metabolism can reduce resazurin into resorufin which causes a colour change from blue to pink. After a 2 hr incubation, plates were read on a plate reader (Tecan) to record absorbance at 570 nm and 600 nm. The cell viability was scored as a percentage relative to the signal from untreated glucose-grown wells. Consequently, each screened compound may be described by its effect (no, partial or full rescue) on survival of the KO cells in galactose medium.
The screen also uses cells lacking UQ biosynthesis (e.g., DKO cells) and its protocol is essentially the same as the galactose-only screen except that in step 2, a minimal amount of UQ10 is added into the galactose screening media at a concentration at which the added UQ10 is insufficient by itself to support survival.

The procedure of data set [8]:
Solubilization studies. In order to link the surfactant properties of McC1 and its stimulating impact on UQ10 uptake, the solubilization characteristics of McC1 on UQ10 have been determined. First, solubilization test was performed by overnight shaking of a mixture of UQ10 and McC1 in water.
Additional solubilization tests were performed using sonication. Excess amount of UQ10 was mixed with McC1 by sonication for 2 min in water.
Like caspofungin/McC1, surfactin is a cyclic lipopeptide. It is produced from various strains of Bacillus subtilis. Structurally it consists of a peptide chain formed by seven amino acids linked to a β-hydroxyl fatty acid via a lactone bond. It is known for its exceptional surfactant power. […] Then, solubilization test was performed by overnight shaking of a mixture of UQ10 and surfactin in water. The mixture were subjected to brief centrifugation to separate undissolved UQ10 before absorbance of the resultant clear supernatant at 275 nm was measured spectrophotometrically.
Several other surfactants were tested for their ability to solubilize UQ. Briefly, excess amount of UQ10 was mixed with water solution of the tested surfactants using sonication. The resultant suspensions were then filtered through a 0.45 μm syringe filter to remove undissolved UQ10.

Data set [9] has as its system Pdss2/Mclk1 DKO cells. Description: Oxygen consumption rate (OCR) by Seahorse XF analyzer. The data set is classed as cell-based, mouse. Here is the method: Measurement of oxygen consumption by Seaborse XF analyzer. Cells were seeded in XF v7 24-well plates (Seahorse Bioscience) at ˜40,000 cells/well for 24 hr. Prior to the measurements, cell medium was replaced with Seahorse XF base medium supplemented with 5.5 mM glucose (Sigma Cat No G8769), 2 mM Glutamax (Thermo Fisher Cat No 35050061) and 1 mM sodium pyruvate and allowed to equilibrate for 1 hour at 37° C. Oxygen consumption was measured first under baseline condition, followed by subsequent addition of 1 μg/ml oligomycin (Sigma Cat No 04876), 0.8 μM FCCP (Sigma Cat No C2920) and a combination of 1 μM rotenone (Sigma Cat No R8875) and 5 μM antimycin A (Sigma Cat No A8674) to assess the basal and maximal mitochondrial respiration rates. Four baseline measurements were recorded before the consecutive addition of the above-mentioned compounds, and three response measurements were taken after the addition of each compound. Results were finally normalized to protein content determined using the Bradford reagent (Bio-Rad). For experiments that involved culturing cells in the presence of lipoprotein-deficient serum (LPDS), cells were grown in culture medium supplemented with LPDS (Sigma S5394) for 1 week before OCR was measured using a Seahorse XF-24 extracellular flux analyzer as described above.

Data set [10] concerns Mclk1 KO cells. Description: Viability in glucose-free galactose-containing medium (resazurin reduction assay). The data set is classed as cell-based, mouse. Here is the method: Tissue culture and viability assays. […] To score growth and viability in galactose, cells were first grown in high glucose DMEM medium to confluency and then switched to glucose-free DMEM media (Thermo Fisher Cat No 26400036) supplemented with 10 mM galactose (Sigma Cat No G5388), 1 mM sodium pyruvate (Thermo Fisher Cat No 11360070), 10% dialyzed FBS (Thermo Fisher Cat No 26400036) and 1% antibiotic-antimycotic solution. Cell viability was determined by resazurin (Sigma Cat No R7017) reduction assay or crystal violet staining following standard procedures.
The screen uses cells lacking UQ (e.g., Mclk1 KO cells) and consists of three key steps: • 1) Day 0: preparation of Mclk1 KO cells in 96-well plates in standard (glucose-containing) culture medium. • 2) Day 1: changing to glucose-free galactose-containing medium and adding compounds to be screened at a concentration of approximately 10 μM. • 3) Day 4 to 6: following 3 to 5 days of incubation with the compound to be screened, media were removed and cell viability was assayed by resazurin reduction assay.
as §3

Data set [11] relates to human Hela cells. The experiment in a line: Cellular UQ10 levels (quinone quantification by HPLC). The data set is classed as cell-based. The following applies: 1 hour treatment, human cells (FIG. 15).
Excerpt: (A) UQ levels in wild-type MEFs after treatment with McC1-solubilized form of UQ10. (B) UQ levels in human Hela cells after treatment with McC1-solubilized form of UQ10. Results are shown as the levels of UQ9 (white bars, measured as ng/mg of protein) or UQ10 (black bars, measured as ng/mg of protein) in control conditions (+None), after treatment with a formulation containing McC1-solubilized form of UQ10, or in the presence of UQ10 only (+UQ10). For the 2 treatment conditions in A, the final UQ10 concentrations in the media were the same—2.5 μM. In B, the final UQ10 concentrations in the media were 8 μM for the two treatment conditions. Values are mean±SEM (n=2). ****p<0.0001 (one-way ANOVA).
as §1

A short description of data set [12]: Solubilization of paclitaxel (PTX) in water. Conditions: FIG. 25.
Protocol: (A) Bar graph showing a concentration of soluble PTX in 4 mM McC1 solution. After mixing PTX and McC1 solution, the undissolved residues were removed by filtration through a 0.22 μm pore-size membrane. For determination of the PTX concentration, absorbance at 230 nm was measured and compared to a standard curve generated for known concentrations of PTX in pure methanol.
A short description of data set [13]: Solubilization of curcumin in water. The format is physicochemical. The source says:
It is important to note that in contrast with the other surfactants tested, McC1 is non-toxic and can be used in intravenous injection.

Where [14] appears, read: in combination with UQ10, vs UQ10 alone.

On to `CC[C@H](C)C[C@H](C)CCCCCCCCC(=O)N[C@H]1C[C@@H](O)[C@@H](NCCN)NC(=O)[C@@H]2[C@@H](O)CCN2C(=O)[C@H]([C@H](O)CCN)NC(=O)[C@H]([C@H](O)[C@@H](O)c2ccc(O)cc2)NC(=O)[C@@H]2C[C@@H](O)CN2C(=O)[C@H]([C@@H](C)O)NC1=O` [McC1, Caspofungin], for which the “intracellular concentration of UQ” value in data set [1] (compound used alone) and in data set [2] (compound used alone) was “no effect” in each case. Moreover, the “cellular uptake of exogenous UQ10” value in data set [1] (setting [14]) and in data set [2] (setting [14]) was “increased uptake of exogenous UQ10 into cells” each time. Further, the “effect on cell growth and survival” value in [3] was “no observable toxicity”. The “uptake of exogenous UQ10 into mitochondria” value in data set [4] and in data set [5] was “significantly increased uptake of exogenous UQ10 into mitochondria” in each case. Besides, the “surfactant (drop collapse) activity” value in data set [6] is “moderate surfactant activity”. For the same molecule, the “survival of DKO cells in galactose medium” value in [7] (compound by itself, no UQ10 added) was “no effect”; in data set [7] (in the presence of a minimal amount of UQ10) it was “able to rescue the mutant cells from death”. For the same molecule, the “increase in aqueous solubility of UQ10” value in [8] was “more than 1,200,000 fold”. The “water solubility of UQ10 in the presence of the compound” value in data set [8] is listed as “greatly increased”. In addition, the “mitochondrial respiration (OCR) compared with UQ10 treatment alone” value in data set [9] (co-treatment with UQ10) is on record as “greater increase of mitochondrial respiration”.
Turning to `COC1=C(OC)C(=O)C(C/C=C(\C)CC/C=C(\C)CC/C=C(\C)CC/C=C(\C)CC/C=C(\C)CC/C=C(\C)CC/C=C(\C)CC/C=C(\C)CC/C=C(\C)CCC=C(C)C)=C(C)C1=O` [UQ10, ubiquinone-10], the “cellular UQ10 levels” value in data set [1] (1 hour treatment, mouse cells (FIG. 15)) is on record as “no effect on intracellular UQ10 levels”; in data set [11], “no effect on intracellular UQ10 levels”. Also, the results for the “survival of Mclk1 KO cells in galactose medium” value in data set [10] (UQ10 0.5 μM (FIG. 3C)) and in data set [10] (UQ10 10 μM (FIG. 3C)) were “little effect” and “almost full rescue”, respectively. Also, the “rescue from galactose-induced cell death by UQ supplementation” value in [7] (if provided at a sufficient amount) was “sufficient to rescue them from galactose-induced cell death”. Further, the “soluble UQ10 in the water-only control” value in [8] is “no detectable soluble UQ10”. Also, the “rates of mitochondrial respiration” value in data set [9] (UQ10 at sufficient doses, Mclk1 SKO and Pdss2/Mclk1 DKO cells) is on record as “increases rates of mitochondrial respiration”.
As to `CC(=O)O[C@H]1C(=O)[C@@]2(C)[C@H]([C@H](OC(=O)c3ccccc3)[C@]3(O)C[C@H](OC(=O)[C@H](O)[C@@H](NC(=O)c4ccccc4)c4ccccc4)C(C)=C1C3(C)C)[C@]1(OC(C)=O)CO[C@@H]1C[C@@H]2O` [PTX, Paclitaxel], in data set [12], the “solubility of PTX in water-only control” value is “not soluble in water”.
As to `COc1cc(/C=C/C(=O)CC(=O)/C=C/c2ccc(O)c(OC)c2)ccc1O` [curcumin], in data set [13], the “solubility of free curcumin in water” value is “very low solubility in water”.

The values are drawn from patent US12053441B2, “Formulations for improving the delivery of hydrophobic agents” (THE ROYAL INSTITUTION FOR THE ADVANCEMENT OF LEARNING / …, priority 2018, dated 2024).
